# Patent publication US6265445A, “Antiarrhythmic compounds” (priority 1997, dated 2001)
# How the values were obtained:
# [1] = tested on: occlusion and reperfusion arrhythmias in anaesthetized dogs; assay: Occlusion and reperfusion arrhythmias following acute coronary ligation in anaesthetized dogs; type: in vivo, mongrel dogs
# Protocol: The method used is essentially in agreement with the method of Vegh et al. [Basic Res. Cardiol. 82, 159-171 (1987)].
# Mongrel dogs of both sexes weighing 10 to 20 kg each were anaesthetized by a mixture of chloralose (60 mg/kg) and urethane (200 mg/kg) and the animals were maintained on artificial respiration. After opening the chest, the ramus descendens anterior (LAD) branch of the left coronary artery of heart was prepared from the first main collateral branch and a loose loop from surgical thread was placed around it. During our experiments, the blood pressure of the animal was measured by using a cannule introduced to the left femoral artery and even the standard ECG parameters by using needle electrodes were continuously registered. The arrhythmias were induced by the occlusion for 25 minutes of a loop placed round the LAD. The survival after lethal arrhythmias and frequency of the arrhythmias were registered. The 28 dogs used in the experiments were divided into three groups. The compound of Example 15 was administered in a dose of 1 mg/kg to 8 animals; d-sotalol was given in a dose of 3 mg/kg to 10 animals by a single intravenous injection 10 minutes before compression of the coronary vessel. The control dogs (10 animals) received 5 ml of physiological saline solution in the same manner as the treated animals.
# By using this method it can be stated whether the substance investigated would be effective for protection against arrhythmias following the ligation of the coronary artery.
# [2] = tested on: arrhythmias following coronary artery occlusion in conscious rats; assay: Occlusion arrhythmia following acute coronary artery ligation in conscious rats; type: in vivo, male rats
# Excerpt: The method used is essentially in agreement with the method of Lepran et al. [J. Pharmacol. Methods 9, pp. 219-230 (1983)].
# During a previous operation, male rats weighing 340 to 360 g each were fitted with a loose surgical thread loop around the left descending coronary vessel, at about 2 mm from its origin. The ends of the loop thread were led out from the chest under the skin, then the surgical wound was closed. After complete recovery from this previous operation (7 to 8 days) acute myocardial ischaemia was induced by contracting the loose ligation in the conscious, freely moving animals. ECG was continuously registered by using bipolar chest electrodes before the ligation of the coronary artery and during the first 15 minutes of ischaemia. The ratio of survivals was determined and the developed arrhythmias were evaluated according to the Lambeth Convention [Walker et al.: Cardiovasc. Res. 22, 447-455 (1988)]. For evaluation of the arrhythmic episodes a score system was also employed by considering the severity of episodes on the basis of a score system from 0 to 6. Both d-sotalol and the substance of Example 15, respectively, were suspended in 1% methylcellulose and administered orally through a gastric sound at 1 hour before the compression of the coronary vessel. The control animals received a treatment with the same volume, i.e. 5 ml/kg of vehicle.
# [3] = p.o. 25 mg/kg, first 15 minutes
compound,measurement,setting,value
"Cc1cccc(C)c1OCC(C)N(C)CCc1ccc(NS(C)(=O)=O)cc1.Cl (centres unmarked) [Example 15, N-[4-[2-[N-Methyl-N-[2-(2,6-dimethylphenoxy)-1-methylethyl]amino]ethyl]phenyl]methanesulfonamide hydrochloride]","Complete survival, animals",[1]; 1 mg/kg i.v.,7/8
same,"Complete survival, percent",[1]; 1 mg/kg i.v.,87.5%
same,protection from arrhythmogenic effects of ligation and reperfusion (in words),"[1]; 1 mg/kg, versus d-sotalol 3 mg/kg",protected from the arrhythmogenic effects of ligation and reperfusion of the coronary artery to a higher degree than a dose of 3 mg/kg of d-sotalol
same,ES (extrasystole),"[1]; occlusion, 1 mg/kg i.v.",36.6 ± 84.1
same,"VF (ventricular fibrillation), animals","[1]; occlusion, 1 mg/kg i.v.",1/8
same,"VF (ventricular fibrillation), percent","[1]; occlusion, 1 mg/kg i.v.",12.5%
same,"VT (ventricular tachycardia), animals","[1]; occlusion, 1 mg/kg i.v.",1/8
same,"VT (ventricular tachycardia), percent","[1]; occlusion, 1 mg/kg i.v.",12.5%
same,"VF (ventricular fibrillation), animals","[1]; reperfusion, 1 mg/kg i.v.",0/7
same,"VF (ventricular fibrillation), percent","[1]; reperfusion, 1 mg/kg i.v.",0%
same,heart rate (in words),"[2]; 25 mg/kg, first 15 minutes of myocardial infarction",statistically unchanged
same,antiarrhythmic effect (in words),[2]; oral administration,showed an antiarrhythmic effect even after oral administration
same,Survival 15 minutes,[2]; p.o. 25 mg/kg,8/50
same,Survival 16 hours,[2]; p.o. 25 mg/kg,7/44
same,Occurrence of arrhythmias: Brady,[2]; [3],2/12
same,Occurrence of arrhythmias: Free (no arrhythmia was observed),[2]; [3],3/19
same,Occurrence of arrhythmias: Other,[2]; [3],9/56
same,Occurrence of arrhythmias: VF,[2]; [3],10/63
same,Occurrence of arrhythmias: VT,[2]; [3],12/75
same,Arrhythmia Score,"[2]; p.o. 25 mg/kg, score system from 0 to 6",3.94 ± 0.64
